Assay results from ChEMBL document CHEMBL1201862, “PubChem BioAssay data set” (2004).
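In this assay, cells in 96-well plates receive the compound at five concentrations for 48 hours. Endpoints are linearly interpolated between the surrounding concentrations. GI50 = concentration required for 50% inhibition of growth.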 Active and inactive are the calls of the source. Rule as the data show it: active = GI50 up to about 1.1 µM and inactive = higher.

Tests used:
Experiment in all cases: NCI tumour cell line growth inhibition, 48 h
[1] = test system: OVCAR-3
[2] = test system: MOLT-4
[3] = test system: MCF7
[4] = test system: OVCAR-4
[5] = test system: SF-295
[6] = test system: 786-0
[7] = test system: U-251
[8] = test system: HCT-116
[9] = test system: HCT-15
[10] = test system: SK-MEL-2
[11] = test system: M14
[12] = test system: EKVX
[13] = test system: UO-31
[14] = test system: LOX IMVI
[15] = test system: SK-MEL-28
[16] = test system: NCI-H522
[17] = test system: RPMI-8226
[18] = test system: Hs-578T
[19] = test system: MDA-N
[20] = test system: KM12

| Structure (SMILES) | GI50 [1] | GI50 [2] | GI50 [3] | GI50 [4] | GI50 [5] | GI50 [6] | GI50 [7] | GI50 [8] | GI50 [9] [µM] | GI50 [10] | GI50 [11] | GI50 [12] | GI50 [13] | GI50 [14] | GI50 [15] | GI50 [16] | GI50 [17] | GI50 [18] | GI50 [19] | GI50 [20] |
| --- | --- | --- | --- | --- | --- | --- | --- | --- | --- | --- | --- | --- | --- | --- | --- | --- | --- | --- | --- | --- |
| CC1CCOc2ccc(cc2)/C=N\c2ccc(cc2)-c2ccc(cc2)/N=C\c2ccc(cc2)OCC1 | > 100 µM (inactive) | > 100 µM (inactive) | > 100 µM (inactive) | > 100 µM (inactive) | > 100 µM (inactive) | > 100 µM (inactive) | > 100 µM (inactive) | > 100 µM (inactive) | > 100 | > 100 µM (inactive) | > 100 µM (inactive) | > 100 µM (inactive) | > 100 µM (inactive) | > 100 µM (inactive) | > 100 µM (inactive) | > 100 µM (inactive) | > 100 µM (inactive) | > 100 µM (inactive) | > 100 µM (inactive) | > 100 µM (inactive) |
| CC(=O)Nc1sc([N+](=O)[O-])cc1S(=O)(=O)c1ccc(Cl)cc1 | 2.32 µM (inactive) | 3.78 µM (inactive) | 2.86 µM (inactive) | 1.86 µM (inactive) | 2.14 µM (inactive) | 4.66 µM (inactive) | 4.22 µM (inactive) | 2.99 µM (inactive) | 3.85 | 0.92 µM (active) | 2.02 µM (inactive) | 3.59 µM (inactive) | 3.09 µM (inactive) | 3.94 µM (inactive) | 11 µM (inactive) | 1.41 µM (inactive) | 3.14 µM (inactive) | 3.56 µM (inactive) | 3.92 µM (inactive) | 2.99 µM (inactive) |
| CC(=O)O[C@H]1C[C@H]2[C@@H]([C@H](OC(C)=O)C[C@@H]3CC4(CC[C@@]32C)OOC2(CCCCC2)OO4)[C@@H]2CC[C@H]([C@H](C)CCC(=O)O)[C@@]12C | 13.9 µM (inactive) | 9.02 µM (inactive) | 4.65 µM (inactive) | 2.55 µM (inactive) | 5.93 µM (inactive) | 11.3 µM (inactive) | 4.52 µM (inactive) | 5.81 µM (inactive) | 4.39 | 13.1 µM (inactive) | 12 µM (inactive) | 1.95 µM (inactive) | 3.28 µM (inactive) | 3.48 µM (inactive) | 11.4 µM (inactive) | 3.24 µM (inactive) | 3.46 µM (inactive) | 2.42 µM (inactive) | 8.75 µM (inactive) | 3.56 µM (inactive) |
| O=C(CNc1nccs1)Nn1cnc2ccc(S(=O)(=O)Nc3nccs3)cc2c1=O | > 100 µM (inactive) | > 100 µM (inactive) | > 100 µM (inactive) | > 100 µM (inactive) | > 100 µM (inactive) | > 100 µM (inactive) | > 100 µM (inactive) | > 100 µM (inactive) | > 100 | > 100 µM (inactive) | > 100 µM (inactive) | > 100 µM (inactive) | > 100 µM (inactive) | > 100 µM (inactive) | > 100 µM (inactive) | > 100 µM (inactive) | > 100 µM (inactive) | > 100 µM (inactive) | > 100 µM (inactive) | > 100 µM (inactive) |
| NNC(=S)N/N=C(/C(=O)Nc1ccc(Cl)c(Cl)c1)C(C1OC(=O)c2ccccc21)[N+](=O)[O-] (stereo not given) | > 100 µM (inactive) | > 100 µM (inactive) | > 100 µM (inactive) | > 100 µM (inactive) | > 100 µM (inactive) | > 100 µM (inactive) | > 100 µM (inactive) | > 100 µM (inactive) | > 100 | > 100 µM (inactive) | > 100 µM (inactive) | > 100 µM (inactive) | > 100 µM (inactive) | > 100 µM (inactive) | > 100 µM (inactive) | > 100 µM (inactive) | > 100 µM (inactive) | > 100 µM (inactive) | > 100 µM (inactive) | > 100 µM (inactive) |
| Oc1ccc(Cc2nccc3cc(O)c(O)cc23)cc1O | 90.8 µM (inactive) | 22.3 µM (inactive) | 21.5 µM (inactive) | 41.6 µM (inactive) | 37.2 µM (inactive) | 32.1 µM (inactive) | 37.9 µM (inactive) | 17.7 µM (inactive) | 57.7 | 49.7 µM (inactive) | 26.6 µM (inactive) | 26.5 µM (inactive) | 40.6 µM (inactive) | 33.5 µM (inactive) | 79.8 µM (inactive) | 30.4 µM (inactive) | 27.4 µM (inactive) | > 100 µM (inactive) | 58.2 µM (inactive) | 67.3 µM (inactive) |
| O=[N+]([O-])c1ccc2c(c1)Cc1cc(/N=C/c3ccc4c(c3)OCO4)ccc1-2 | > 100 µM (inactive) | > 100 µM (inactive) | > 100 µM (inactive) | > 100 µM (inactive) | > 100 µM (inactive) | > 100 µM (inactive) | > 100 µM (inactive) | > 100 µM (inactive) | > 100 | > 100 µM (inactive) | > 100 µM (inactive) | 57.1 µM (inactive) | > 100 µM (inactive) | > 100 µM (inactive) | > 100 µM (inactive) | > 100 µM (inactive) | > 100 µM (inactive) | 80 µM (inactive) | > 100 µM (inactive) | > 100 µM (inactive) |
| Nc1ccc(C(=O)N2CCC[C@H]2CO)c(N)c1 | > 100 µM (inactive) | > 100 µM (inactive) | > 100 µM (inactive) | > 100 µM (inactive) | > 100 µM (inactive) | > 100 µM (inactive) | > 100 µM (inactive) | > 100 µM (inactive) | > 100 | > 100 µM (inactive) | > 100 µM (inactive) | > 100 µM (inactive) | > 100 µM (inactive) | > 100 µM (inactive) | > 100 µM (inactive) | > 100 µM (inactive) | > 100 µM (inactive) | > 100 µM (inactive) | > 100 µM (inactive) | > 100 µM (inactive) |
| O=S(=O)(O)n1ccnc1 | > 100 µM (inactive) | > 100 µM (inactive) | > 100 µM (inactive) | > 100 µM (inactive) | > 100 µM (inactive) | > 100 µM (inactive) | > 100 µM (inactive) | > 100 µM (inactive) | > 100 | 77.3 µM (inactive) | > 100 µM (inactive) | > 100 µM (inactive) | > 100 µM (inactive) | > 100 µM (inactive) | > 100 µM (inactive) | > 100 µM (inactive) | > 100 µM (inactive) | > 100 µM (inactive) | > 100 µM (inactive) | > 100 µM (inactive) |
